Test results published in US7759345B2, “Antitumoral derivatives of ET-743” (priority 2001, dated 2010).
Where two headings read alike, the source gives them in different places.

Legend:
[1] = tested on: HT-29; assay: Inhibition of cell growth by counting cells, HT-29; type: cell-based, human; conditions: Homo sapiens, HT-29, 72 h; three days of incubation; read-out: IC50 (molar) HT-29
Summary of the method: (§1)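 Growth inhibition by direct cell counting: exponentially growing cells treated 3 days with compound at 37° C; IC50 derived from dose-response of net cells per well.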

[2] = tested on: MEL-28; assay: Inhibition of cell growth by counting cells, MEL-28; type: cell-based, human; conditions: Homo sapiens, SK-MEL-28, 72 h; three days of incubation; read-out: IC50 (molar) MEL-28
Procedure: (§2) 1°.—Inhibition of Cell Growth by Counting Cells.
(§3) This form of the assay employs 24 well multidishes of 16 mm diameter (Bergeron, 1984; Schroeder, 1981). The tumor cell lines employed are: P-388 (ATCC CCL 46), suspension culture of a lymphoid neoplasm from a DBA/2 mouse; A-549 (ATCC CCL 185), monolayer culture of a human lung carcinoma; HT-29 (ATCC HTB-38), monolayer culture of a human colon carcinoma; MEL-28 (ATCC HTB-72), monolayer culture of a human melanoma and DU-145 (ATCC HTB-81), monolayer culture of a human prostate carcinoma.
(§4) Cells were maintained, in logarithmic phase of growth in Eagle's Minimum Essential Medium, with Earle's Balanced Salts, with non-essential amino acids, with 2.0 mM L-Glutamine, without sodium bicarbonate (EMEM/neaa), supplemented with 10% Fetal Calf Serum (FCS), 10^−2 M. sodium bicarbonate and 0.1 U/l penicillin G+0.1 g/l streptomycin sulfate. For the experiments, cells are harvested from subconfluent cultures using trypsin and resuspended in fresh medium before plating.
(§5) A-549, HT-29, MEL-28 and DU-145 cells were seeded into 16 mm diameter wells at 1×10^4 cells per well in 1 ml aliquots of EMEM 5% FCS containing different concentrations of the sample to be tested. A separate set of cultures without drug was seeded as control of growth, to ensure that cells remained in exponential phase of growth. All determinations are carrying out in duplicate. After three days of incubation at 37° C., 5% CO2 in a 98% humid atmosphere cells were stained with 0.1% crystal violet. An approximately IC50 was determined by comparing the growth in wells with drug to the growth in wells control.
(§6) For quantifying the activity, after the incubation time, cells are trypsinized and counted in a Coulter Counter ZM. All counts (net cells per well), represent the average of duplicate wells. % G, percent of growth relative to cultures without drug. The results of these assays are used to generate dose-response curves from which more precise IC50 values are determined (sample concentration which produces 50% cell growth inhibition).
(§7) Obtained results may predict the usefulness of a certain drug as a potential cancer treatment. For this technique, compounds which show IC50 values smaller than 1 μg/ml are selected to continue with further studies. IC50's data allow to predict that not only could a drug be cystostatic, but also it could have a potential in terms of tumor reduction.

[3] = tested on: A-549; assay: Inhibition of cell growth by counting cells, A-549; type: cell-based, human; conditions: Homo sapiens, A549, 72 h; three days of incubation; read-out: IC50 (molar) A-549
Summary of the method: as §1

[4] = tested on: P-388; assay: Inhibition of cell growth by counting cells, P-388; type: cell-based, mouse; conditions: Mus musculus, P388, 72 h; three days of incubation; read-out: IC50 (molar) P-388
Procedure: as §2, §3, §4
P-388 cells were seeded into 16 mm diameter wells at 1×10^4 cells per well in 1 ml aliquots of EMEM 5% FCS containing different concentrations of the sample to be tested. A separate set of cultures without drug was seeded as control of growth, to ensure that cells remained in exponential phase of growth. All determinations are carrying out in duplicate.
as §6, §7

[5] = tested on: DU-145; assay: Inhibition of cell growth by counting cells, DU-145; type: cell-based, human; conditions: Homo sapiens, DU-145, 72 h, read-out: IC50 (molar) DU-145
Procedure: as §2, §3, §4, §5, §6, §7

Row | SMILES | IC50 [1] [nM] | IC50 [2] [nM] | IC50 [3] [nM] | IC50 [4] [nM] | IC50 [5] [nM] | IC50 ([5]; three days of incubation) [nM]
1 | COc1cc2c(cc1OC(=O)/C=C/c1ccccc1)CCN[C@]21CS[C@@H]2c3c(OC(C)=O)c(C)c4c(c3[C@H](COC1=O)N1C2[C@H]2c3c(cc(C)c(OC)c3OC(=O)OC(C)(C)C)C[C@@H]([C@@H]1C#N)N2C)OCO4 (some centres unmarked) [Compound 49] | 0.999 | 0.999 | 0.999 | 0.999 | 0.999 | –
2 | C=CCOc1cc2c(cc1OC)[C@@]1(CS[C@@H]3c4c(O)c(C)c5c(c4[C@H](COC1=O)N1C3[C@H]3c4c(cc(C)c(OC)c4OCC=C)C[C@@H]([C@@H]1C#N)N3C)OCO5)NCC2 (some centres unmarked) [Compound 50] | 124 | 124 | 124 | 124 | – | 124
3 | CCCC(=O)Oc1cc2c(cc1OC)[C@@]1(CS[C@@H]3c4c(OC(C)=O)c(C)c5c(c4[C@H](COC1=O)N1C3[C@H]3c4c(cc(C)c(OC)c4O)C[C@@H]([C@@H]1O)N3C)OCO5)NCC2 (some centres unmarked) [Compound 58] | 0.12 | 0.12 | 0.12 | 0.12 | – | 0.12
4 | CCCCCCCCCCCCCCCC(=O)Oc1cc2c(cc1OC)[C@@]1(CS[C@@H]3c4c(OC(C)=O)c(C)c5c(c4[C@H](COC1=O)N1C3[C@H]3c4c(cc(C)c(OC)c4O)C[C@@H]([C@@H]1O)N3C)OCO5)NCC2 (some centres unmarked) [Compound 60] | 5 | 5 | 5 | 10 | – | 5
5 | C=CCOC(=O)NC(CSCC1c2ccccc2-c2ccccc21)C(=O)Oc1cc2c(cc1OC)[C@@]1(CS[C@@H]3c4c(OC(C)=O)c(C)c5c(c4[C@H](COC1=O)N1C3[C@H]3c4c(cc(C)c(OC)c4O)C[C@@H]([C@@H]1O)N3C)OCO5)NCC2 (some centres unmarked) [Compound 62] | 0.888 | 0.888 | 0.888 | 0.888 | – | 0.888
6 | COc1cc2c(cc1OC(=O)OC(C)(C)C)CCN[C@]21CS[C@@H]2c3c(OC(C)=O)c(C)c4c(c3[C@H](COC1=O)N1C2[C@H]2c3c(cc(C)c(OC)c3O)C[C@@H]([C@@H]1O)N2C)OCO4 (some centres unmarked) [Compound 66] | 0.116 | 0.116 | 0.116 | 0.116 | – | 0.116
7 | CCCOc1cc2c(cc1OC)[C@@]1(CS[C@@H]3c4c(OC(C)=O)c(C)c5c(c4[C@H](COC1=O)N1C3[C@H]3c4c(cc(C)c(OC)c4O)C[C@@H]([C@@H]1O)N3C)OCO5)NCC2 (some centres unmarked) [Compound 69] | 0.623 | 0.623 | 0.623 | 0.125 | – | 0.623
8 | COc1cc2c(cc1OCc1ccccc1)CCN[C@]21CS[C@@H]2c3c(OC(C)=O)c(C)c4c(c3[C@H](COC1=O)N1C2[C@H]2c3c(cc(C)c(OC)c3O)C[C@@H]([C@@H]1O)N2C)OCO4 (some centres unmarked) [Compound 71] | 0.588 | 0.588 | 0.588 | 0.588 | – | 0.588
9 | CCCCCCCCCCCCCCCC(=O)Oc1cc2c(cc1OC)[C@@]1(CS[C@@H]3c4c(OC(C)=O)c(C)c5c(c4[C@H](COC1=O)N1C3[C@H]3c4c(cc(C)c(OC)c4OC(=O)CCCCCCCCCCCCCCC)C[C@@H]([C@@H]1O)N3C)OCO5)NCC2 (some centres unmarked) [Compound 83] | 80.8 | 80.8 | 80.8 | 80.8 | – | 80.8
10 | CCOc1cc2c(cc1OC)[C@@]1(CS[C@@H]3c4c(OC(C)=O)c(C)c5c(c4[C@H](COC1=O)N1C3[C@H]3c4c(cc(C)c(OC)c4OCC)C[C@@H]([C@@H]1O)N3C)OCO5)NCC2 (some centres unmarked) [Compound 88] | 12.2 | 12.2 | 12.2 | 12.2 | – | 12.2
